In BindingDB's records for doi:10.1021/jm000271k (Parke-Davis Pharmaceutical Research, 2000):

Biological target: Cyclin-dependent kinase 4/G1/S-specific cyclin-D1 [L188C] (Homo sapiens, UniProt P11802)
Test: CDKs Assay
Conditions: not given
Description: The enzyme was assayed with substrate GST- retinoblastoma in the presence of 25 uM ATP/[gamma-32P] ATP. IC50 is the inhibitor concentration, which inhibits 50% of enzyme activity that catalyzes the transfer of the terminal phosphate from [gamma-32P] labeled ATP to GST- retinoblastoma. Use of 32P-labeled ATP allows this transfer to be monitored by scintillation counting.

| Structure (SMILES) | IC50 [nM] |
| --- | --- |
| CCN(CC)CCOc1ccc(Nc2ncc3ccc(=O)n(C(C)C)c3n2)cc1 [2-({4-[2-(diethylamino)ethoxy]phenyl}amino)-8-(propan-2-yl)-7H,8H-pyrido[2,3-d]pyrimidin-7-one] | 45 |
| O=c1ccc2cnc(Nc3ccccc3)nc2n1C1CCCC1 [8-cyclopentyl-2-(phenylamino)-7H,8H-pyrido[2,3-d]pyrimidin-7-one] | 210 |
| CCn1c(=O)ccc2cnc(Nc3ccc(N4CCOCC4)cc3)nc21 [8-Ethyl-2-(4-(morpholin-4-yl)phenylamino)-8H-pyrido[2,3-d]pyrimidin-7-one] | 300 |
| Cn1c(=O)ccc2cnc(Nc3ccccc3)nc21 [8-Methyl-2-phenylamino-8H-pyrido[2,3-d]pyrimidin-7-one] | 5480 |
| O=c1ccc2cnc(Nc3ccccc3)nc2n1C1CCCCCC1 [8-cycloheptyl-2-(phenylamino)-7H,8H-pyrido[2,3-d]pyrimidin-7-one] | 182 |
| O=c1ccc2cnc(Nc3ccccc3)nc2n1CC1CO1 (configuration not stated) [8-Oxiranylmethyl-2-phenylamino-8H-pyrido[2,3-d]pyrimidin-7-one] | 5000 |
| O=c1ccc2cnc(Nc3ccccc3)nc2n1C1CCCCC1 [8-Cyclohexyl-2-phenylamino-8H-pyrido[2,3-d]pyrimidin-7-one] | 47 |
| CCn1c(=O)ccc2cnc(Nc3ccc(N4CCN(C)CC4)cc3)nc21 [8-Ethyl-2-[4-(4-methylpiperazin-1-yl)phenylamino]-8H-pyrido[2,3-d]pyrimidin-7-one] | 85 |
| O=c1ccc2cnc(Nc3ccccc3)nc2n1Cc1ccccc1 [8-benzyl-2-(phenylamino)-7H,8H-pyrido[2,3-d]pyrimidin-7-one] | 940 |
| O=c1ccc2cnc(Nc3ccccc3)nc2n1C1CC2CCC1C2 (configuration not stated) [8-Bicyclo[2.2.1]hept-2-yl-2-phenylamino-8H-pyrido[2,3-d]pyrimidin-7-one] | 38 |
| CC(C)n1c(=O)ccc2cnc(Nc3ccc(N4CCN(C)CC4)cc3)nc21 [8-Isopropyl-2-[4-(4-methylpiperazin-1-yl)phenylamino]-8H-pyrido[2,3-d]pyrimidin-7-one] | 32 |

The next lines start with the values.

| IC50 [nM] | Structure (SMILES) |
| --- | --- |
| 1490 | CCCCn1c(=O)ccc2cnc(Nc3ccccc3)nc21 [8-Butyl-2-phenylamino-8H-pyrido[2,3-d]pyrimidin-7-one] |
| 553 | CCCn1c(=O)ccc2cnc(Nc3ccccc3)nc21 [2-(phenylamino)-8-propyl-7H,8H-pyrido[2,3-d]pyrimidin-7-one] |

Same assay, conditions: pH 7.4; 25 °C

| IC50 [nM] | Structure (SMILES) |
| --- | --- |
| 330 | CCn1c(=O)ccc2cnc(Nc3ccc(N(C)C)cc3)nc21 [2-{[4-(dimethylamino)phenyl]amino}-8-ethyl-7H,8H-pyrido[2,3-d]pyrimidin-7-one] |
| 7830 | CCn1c(=O)ccc2cnc(Nc3cccc(OC(F)(F)C(F)F)c3)nc21 [8-Ethyl-2-[3-(1,1,2,2-tetrafluoroethoxy)phenylamino]-8H-pyrido[2,3-d]pyrimidin-7-one] |
| 600 | CCn1c(=O)ccc2cnc(Nc3ccc(OC)cc3)nc21 [8-ethyl-2-[(4-methoxyphenyl)amino]-7H,8H-pyrido[2,3-d]pyrimidin-7-one] |
| 3300 | CCn1c(=O)ccc2cnc(NC3CCCCC3)nc21 [2-Cyclohexylamino-8-ethyl-8H-pyrido[2,3-d]pyrimidin-7-one] |
| 12000 | CCNc1ncc2ccc(=O)n(CC)c2n1 [8-ethyl-2-(ethylamino)-7H,8H-pyrido[2,3-d]pyrimidin-7-one] |
| 1400 | CCn1c(=O)ccc2cnc(Nc3cccc(F)c3)nc21 [8-Ethyl-2-(3-fluorophenylamino)-8H-pyrido[2,3-d]pyrimidin-7-one] |
| 1240 | CCn1c(=O)ccc2cnc(Nc3ccc(F)cc3)nc21 [8-ethyl-2-[(4-fluorophenyl)amino]-7H,8H-pyrido[2,3-d]pyrimidin-7-one] |
| 5250 | CCn1c(=O)ccc2cnc(NC(C)(C)C)nc21 [2-(tert-butylamino)-8-ethyl-7H,8H-pyrido[2,3-d]pyrimidin-7-one] |
| 160 | CCN(CC)CCOc1ccc(Nc2ncc3ccc(=O)n(CC)c3n2)cc1 [2-({4-[2-(diethylamino)ethoxy]phenyl}amino)-8-ethyl-7H,8H-pyrido[2,3-d]pyrimidin-7-one] |
